In experiment [1] the target is T1, Ubiquitin-like modifier-activating enzyme ATG7 (Homo sapiens, UniProt O95352).
T1 sequence (O95352 whole entry): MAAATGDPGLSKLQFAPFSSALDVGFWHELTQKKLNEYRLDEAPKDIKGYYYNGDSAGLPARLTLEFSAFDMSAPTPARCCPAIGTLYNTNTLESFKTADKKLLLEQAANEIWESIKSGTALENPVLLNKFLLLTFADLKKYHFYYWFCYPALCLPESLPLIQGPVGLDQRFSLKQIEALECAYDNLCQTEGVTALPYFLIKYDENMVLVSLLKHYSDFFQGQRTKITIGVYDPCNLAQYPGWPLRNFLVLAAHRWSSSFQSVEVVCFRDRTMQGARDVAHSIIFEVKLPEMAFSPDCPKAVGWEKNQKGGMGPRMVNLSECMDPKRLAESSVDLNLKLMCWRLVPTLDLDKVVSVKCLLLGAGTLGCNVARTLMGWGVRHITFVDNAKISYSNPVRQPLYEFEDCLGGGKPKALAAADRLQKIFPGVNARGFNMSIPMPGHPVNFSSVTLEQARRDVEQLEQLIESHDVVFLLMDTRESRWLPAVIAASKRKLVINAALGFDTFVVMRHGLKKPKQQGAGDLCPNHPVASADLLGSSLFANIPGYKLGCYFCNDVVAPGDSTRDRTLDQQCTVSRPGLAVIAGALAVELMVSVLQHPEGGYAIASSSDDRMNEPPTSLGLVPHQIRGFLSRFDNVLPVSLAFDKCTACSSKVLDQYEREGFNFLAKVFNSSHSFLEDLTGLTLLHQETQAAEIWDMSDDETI
Put plainly: Inhibition of ATG7 in human 293HEK cells assessed as inhibition of ATG7:ATG8 thioester formation after 8 hrs by Western blot analysis. In kind it is cell-based, HEK293.

A short description of experiment [2]: […] of autophagy in human H4 cells assessed as decrease in LC3B spot area by immunofluorescence assay. In kind it is functional, cell-based.
Experiment [3] in a line: Inhibition of UAE (unknown origin).
In experiment [4] the test system is SK-OV-3. Briefly: […] of autophagy in human SKOV3 cells assessed as accumulation of NRB1 by immunofluorescence assay. The format is functional, cell-based.
For experiment [5], the target named is T1, Ubiquitin-like modifier-activating enzyme ATG7. Put plainly: Inhibition of recombinant His-tagged human ATG7 incubated for 105 mins in presence of GST-tagged ATG3 and Flag-tagged Gabarap and measured after 2 hrs by FRET assay relative to control.
For experiment [6], the system named is SK-OV-3. Briefly: […] of autophagy in human SKOV3 cells assessed as accumulation of p62 by immunofluorescence assay. The format is functional, cell-based.
A short description of experiment [7]: Inhibition of NAE (unknown origin).
Experiment [8] is described as follows: Inhibition of SAE (unknown origin).
The subject of a further experiment is NCI-H1650. Put plainly: Antiproliferative activity against human H1650 cells assessed as reduction in cell viability after 72 hrs by cell titer glow assay. The format is cell-based. The conditions noted are these: NCI-H1650, 72 h. For orientation: ATP-based viability assays read luminescence as a measure of living cells.
The target of experiment [9] is T1, Ubiquitin-like modifier-activating enzyme ATG7. Put plainly: Inhibition of ATG7 in human 293HEK cells assessed as inhibition of ATG7:ATG8 thioester formation after 4 hrs by Western blot analysis. In kind it is cell-based, HEK293. In general terms: Immunoblotting shows a protein as a band on a membrane.

A value given as a limit tells only on which side of the number the result lay.

Take `CSc1nn([C@H]2C[C@H](O)[C@@H](COS(N)(=O)=O)O2)c2ncnc(N)c12`: the IC50 (as a rule, the concentration at which inhibition is half-maximal) in [1] was 86 nM; in experiment [2] it was 938 nM; in experiment [3] it was greater than 1000 nM; in experiment [5] it was 48 nM; in experiment [7] it was greater than 1000 nM; in [8], greater than 1000 nM. In addition, the IC50 in [9] amounted to 280 nM. In addition, the figures for the EC50 in the experiment with SK-OV-3 [4], in the experiment with SK-OV-3 [6] and with NCI-H1650 were greater than 20000 nM, 3000 nM and 10400 nM, respectively.
Consider `CCSc1nn([C@H]2C[C@H](O)[C@@H](COS(N)(=O)=O)O2)c2ncnc(N)c12`, for which the IC50 in experiment [2] was 1360 nM; in [3], greater than 1000 nM; in [5], 52 nM; in experiment [7], greater than 1000 nM; in [8], greater than 1000 nM; in [9] it was 367 nM. Moreover, the EC50 (in general, the midpoint of the concentration-response curve) with SK-OV-3 [4] was greater than 20000 nM; in the experiment with SK-OV-3 [6], 2300 nM; in the experiment on NCI-H1650, greater than 50000 nM.

Values taken from ChEMBL document CHEMBL4725396, “Discovery and optimization of pyrazolopyrimidine sulfamates as ATG7 inhibitors” (Bioorg Med Chem, 2020).
